Results as given in patent publication US20080220416A1, “Compositions for Inhibiting Cell Growth and Inducing Apoptosis in Cancer Cells and Methods of Use Thereof” (THE BOARD OF TRUSTEES OF THE UNIVERSITY OF ILLINOI, priority 2004, published 2008).

Key:
Assay type in all cases: cell-based, human
[1] = test system: MDA-MB231 breast cancer cells; assay: Cytotoxicity and growth assay in MDA-MB231 breast cancer cells (SRB, TCA-precipitated protein); details: MDA-MB231; siRNA transfection
Method: An invasive, estrogen-independent breast cancer cell line that spontaneously expresses high levels of Notch-1 and -4, MDA-MB231, and normal human breast cells were used to investigate whether inhibition of Notch activation or expression affects the biological behavior of breast cancer cells. Human Mammary Epithelial Cells (HMEC) were purchased from Clonetics and cultured in mammary epithelial cell basal medium (MEBM) supplemented with 52 μg/ml Bovine Pituitary Extract […], […] human recombinant Epidermal Growth Factor (hEGF), 5 μg/ml insulin, 0.5 μg/ml Hydrocortisone, 50 μg/ml Gentamicin and 50 μg/ml Amphotericin-B. MDA-MB231 (ATCC, Rockville, Md.) were cultured in DMEM medium with 10% FBS. Notch expression in HMEC and MDA-MB231 cells was silenced using highly specific RNAi. Double-stranded synthetic 21-mer RNA oligonucleotides (siRNAs) were purchased from Dharmacon (Lafayette, Colo.). […] Sequence specificity was determined by BLAST searches which determined the uniqueness of the sequences. Transfection of siRNAs was performed using Oligofectamine (Invitrogen) as recommended by the siRNA manufacturer (Dharmacon). Transfection efficiency was optimized and followed on parallel wells using DNA double stranded oligos of identical sequence to the siRNAs, labeled with biotin on one strand. Transfected cells were identified by Streptavidin-horseradish peroxidase staining (Vectastain) and counted. Transfection efficiencies around 80% were routinely obtained.
Cytotoxicity and growth of transfected cells were estimated by a standard assay used for cancer drug screening, through the total amount of TCA-precipitated cell proteins after drug treatment (Likhitwitayawuid, K et al., 1993, J Nat Prod 56:30-38): 200 μl of cell suspension (10^5 cells/ml) were added to each well in a 96-well plate. After incubation at, 37° C., in 5% CO2 (30 minutes to 72 hours depending on the time course chosen), 50 μl 50% trichloroacetic acid was added to each well. After incubation at 4° C. for 1 hour, precipitates were washed with water 4-5 times and air dried overnight. One hundred μl of SRB solution (0.4% sulforhodamine B in 1% acetic acid, filtered before use) was added to each well for 30 minutes. Wells were washed with 1% acetic acid 4-5 times and air dried. Two hundred μl 10 mM Tris base was added to each well. Plates were shaken for 5-10 minutes and OD at 490 nm (OD490) was recorded via ELISA reader. To assay matrix invasion, 300 μl of cell suspension (10^6 cells/mL in serum-free medium) were added to invasion inserts (BioCoat Matrigel Invasion Chambers, Becton Dickinson, Bedford, Mass.) and incubated for 22 hours at 37° C., 5% CO2. […] After removal of the non-invading cells from the interior of the inserts, stained invading cells were lysed in 10% acetic acid and OD595 was determined. […]

[2] = test system: MDA-MB231 breast cancer cells; assay: Extracellular matrix invasion of MDA-MB231 cells (Matrigel Invasion Chambers); details: siRNA transfection, 22 hours
Method: Cytotoxicity and growth of transfected cells were estimated by a standard assay used for cancer drug screening, through the total amount of TCA-precipitated cell proteins after drug treatment (Likhitwitayawuid, K et al., 1993, J Nat Prod 56:30-38): 200 μl of cell suspension (10^5 cells/ml) were added to each well in a 96-well plate. After incubation at, 37° C., in 5% CO2 (30 minutes to 72 hours depending on the time course chosen), 50 μl 50% trichloroacetic acid was added to each well. After incubation at 4° C. for 1 hour, precipitates were washed with water 4-5 times and air dried overnight. One hundred μl of SRB solution (0.4% sulforhodamine B in 1% acetic acid, filtered before use) was added to each well for 30 minutes. Wells were washed with 1% acetic acid 4-5 times and air dried. Two hundred μl 10 mM Tris base was added to each well. Plates were shaken for 5-10 minutes and OD at 490 nm (OD490) was recorded via ELISA reader. To assay matrix invasion, 300 μl of cell suspension (10^6 cells/mL in serum-free medium) were added to invasion inserts (BioCoat Matrigel Invasion Chambers, Becton Dickinson, Bedford, Mass.) and incubated for 22 hours at 37° C., 5% CO2. Cells were stained with 0.9% crystal violet in 10% ethanol for 20 minutes. Inserts were dipped in water several times and air dried. After removal of the non-invading cells from the interior of the inserts, stained invading cells were lysed in 10% acetic acid and OD595 was determined.
Notch silencing was confirmed by Western blot as described above in Example 15 using commercial goat polyclonal antibodies from Santa Cruz Biotechnology to Notch-1 (C-20, Cat# sc-6014 S). For the Western blot analyses, MDA-MB231 cells were treated with 25 μM IL-X for 48 h or with 0.5, 1 or 2 μM z-Leu-Leu-Nle-CHO for 24 h. Cytotoxicity and matrix invasion assays were performed as described above in Example 15. For the cytotoxicity assays, MDA-MB231 cells were treated with […] IL-X for up to 3 days or with 0-20 μM z-Leu-Leu-Nle-CHO for up to 4 days. […]

MDA-MB231 cells = assay: Cell cycle distribution of MDA-MB231 cells by flow cytometry; details: siRNA transfection
Method: Cell cycle analysis was performed to further study the effects of inhibition of Notch signaling in breast cancer cells. MDA-MB231 cells were treated overnight with 0-10 μM z-Leu-Leu-Nle-CHO prior to cell cycle distribution analysis by flow cytometry. Alternatively, MDA-MB231 cells were transfected with Notch-1, Notch-4 or control siRNA as described above in Example 15. For cell cycle distribution analysis by flow cytometry, z-Leu-Leu-Nle-CHO- or siRNA-treated cells (10^6) were pelleted and washed twice in PBS. Cells were then fixed in 80% methanol and stored at −20° C. until use. Fixed cells were pelleted and washed twice in PBS, and resuspended in 50 μl PI:PBS solution (50 μg/ml PI). After RNase A (100 μg/ml) treatment at 37° C. for an hour, cells were analyzed by flow cytometry using a FACScalibur instrument.

NOXA [3] = assay: NOXA antisense oligonucleotide in z-Leu-Leu-Nle-CHO-treated melanoma cells (Western blot, sub-G0 DNA content); details: RJ002L
Source text: The role of NOXA in z-Leu-Leu-Nle-CHO-mediated apoptosis of melanoma cells was further evaluated using RJ002L, C8161 and MUM2B melanoma cell lines containing antisense oligonucleotide targeting NOXA. The antisense oligonucleotides (ASO) included a NOXA targeted sequence (5′-TCAGTCTACTGATTTACTGG-3′) (SEQ ID NO: 2) and a control oligonucleotide (CO) (5′-CCTTCCCTGAAGGTTCCTCC-3′) (SEQ ID NO: 3). The ASO were purchased from ISIS Pharmaceuticals Inc. (Carlsbad, Calif.) as previously described by Qin J et al., 2004, Mol Cancer Ther 3:895-902. Melanoma cells were seeded at 2×10^5 cells into 6 well plates I day before transfection. Opti-MEM (InVitrogen) was pre-incubated for 30 minutes at room temperature using a ratio of 3 μM/mL lipofectamine per 100 nmol/L to produce a final oligonucleotide concentration of 50 nmol/L. Cells were washed with PBS and transfection mix (1 ml) was added. After 4 hrs of incubation, RPMI 1640 (1 mL) containing 20% fetal bovine serum and z-Leu-Leu-Nle-CHO (10 μM) was added to the cells and the cells were incubated for 24 hrs. The treated cells were analyzed for cell viability using APO TARGET Annexin V-FITC staining kits (Biosource), for cell cycle progression and by Western blot using NOXA, Bim, Bak and β-actin antibodies as described above.

NOXA [4] = assay: NOXA antisense oligonucleotide pretreatment before proteasome inhibitors in melanoma cell lines; details: MG-132, lactacystin or bortezomib; three melanoma cell lines; 24 hrs
Source text: To more definitively establish a role for NOXA in the proteasome inhibitor-induced apoptotic response, three different melanoma cell lines were pre-treated with an antisense oligonucleotides (ASO). The ASOs included a NOXA targeted sequence (5′-TCAGTCTACTGATTTACTGG-3′) (SEQ ID NO: 2) and a universal scrambled control oligonucleotide (5′-TTCTACCTCGCGCGATTTAC-3′) (SEQ ID NO: 4) (FIGS. 10A, 10B and 10C), or control oligonucleotide (CO) (5′-CCTTCCCTGAAGGTTCCTCC-3′) (SEQ ID NO: 3) (FIGS. 6B and 6D). All three ASO were provided by ISIS Pharmaceuticals Inc. (Carlsbad, Calif.) as previously described by Qin et al., 2004, Mol Cancer Ther. 3:895-902). Melanoma cells were seeded at 2×10^5 cells into 6 well plates 1 day before transfection. Opti-MEM (InVitrogen) was pre-incubated for 30 minutes at room temperature using a ratio of 3 μM/mL lipofectamine per 100 nmol/L to produce a final oligonucleotide concentration of […]. Cells were washed with PBS and transfection mix (1 ml) was added. […] The treated cells were analyzed for cell viability using APO TARGET Annexin V-FITC staining kits (Biosource) and by Western blot using NOXA and β-actin antibodies as described above.

CaSki cells = assay: LY411,575 combinations in CaSki cells, growth inhibition and isobologram analysis; details: in vitro
Method: To evaluate the possibility that inhibition of Notch signaling may sensitize advanced cervical cancers to the effect of cisplatin chemotherapy because Notch-1 protects these cells from apoptosis through the AKT and NF-κB pathways, a non-peptide, benzodiazepine gamma-secretase inhibitor, LY411,575 (Wong et al., 2004, J Biol. Chem. 279:12876-82) was tested in combination with a AKT inhibitor (AKT inhibitor I) or a proteasome inhibitor (MG-132) for effects on cell growth. The latter class of drugs is thought to act primarily by preventing NF-KB activation (Adams, J, 2002, Curr Opin Oncol 14:628-634; Richardson, P, 2003, Cancer Treat Rev 29 Suppl 1:33-39) caused by proteasome-mediated degradation of IκB.
To determine whether LY411,575 potentiates the effect of AKT inhibitor I or MG-132, CaSki cells were treated with (a) LY411,575 (6.25 μM to 50 μM) and AKT inhibitor 1 (0.5 μM to 75 μM), or (b) LY411,575 (1.5 μM to 200 μM) and MG-132 (0.05 μM to 0.2). Following the drug treatment, the cells were tested for growth inhibition as described above. LY411,575 was synthesized according to methods well known in the art (e.g., see WO-09828268, which is incorporated by reference), and AKT inhibitor I and MG-132 were purchased from Calbiochem.
The IC50 values of LY411,575 in the presence of various concentrations of AKT inhibitor I or MG-132 were measured. […]

## 5′-AACCCTGTGCCAATGGAGGCA-3′ [Notch-4 siRNA]
[1]
  proliferation: even stronger anti-proliferative effect in MDA-MB231 cells than Notch-1 silencing
[2]
  extracellular matrix invasion: significantly inhibited extracellular matrix invasion
MDA-MB231 cells
  cell cycle distribution: accumulation of cells in G2/M was maximal at 24 hours

## 5′-TCAGTCTACTGATTTACTGG-3′ (antisense TCAGTCTACTGATTTACTGG; listed as DNA, chemistry not given here) [NOXA ASO]
NOXA [3]; C8161, MUM2B, p<0.01 versus control oligonucleotide
  effect on z-Leu-Leu-Nle-CHO mediated apoptosis (sub-G0 DNA content): significantly reduced z-Leu-Leu-Nle-CHO mediated apoptosis
NOXA [3]; 50 nmol/L oligonucleotide
  effect on z-Leu-Leu-Nle-CHO induction of NOXA, Bim, Bak: blocked induction of NOXA, but not Bim or Bak
NOXA [4]
  reduction of proteasome inhibitor-induced apoptotic response: 30-50%

## C[C@H](NC(=O)[C@@H](O)c1cc(F)cc(F)c1)C(=O)N[C@@H]1C(=O)N(C)c2ccccc2-c2ccccc21 [LY411,575]
CaSki cells
  potency relative to z-Leu-Leu-Nle-CHO: less potent than z-Leu-Leu-Nle-CHO in vitro
